This note sets out measurements from patent US10669269B2, “Substituted N-(1H-indazol-4-yl)imidazo[1,2-a]pyridine-3-carboxamide compounds as type III receptor tyrosine kinase inhibitors” (ARRAY BIOPHARMA INC., priority 2010, dated 2020).

SMILES strings stand for the structures. Counter-ions that a name gives are not always drawn.

One assay has as its target T1, PDGFR beta (Homo sapiens, UniProt P09619).
T1 construct: endogenous in cells; host or cells: HS27 human fibroblast cell line
Nature of the assay: Phospho PDGFR LICOR Cell Assay (Example B). To be noted: averaged IC50; PDGFR beta phosphorylation in HS27 human fibroblast cell line, PDGF-BB stimulation 10 minutes, normalized to total ERK. The class given is cell-based. As to the method:
Compounds were screened for inhibition of PDGFR beta phosphorylation in the HS27 human fibroblast cell line. Cells were seeded into a 96 well tissue culture plate, then incubated overnight in a 37° C./5% CO2 incubator. The following day, cells were treated for one hour with test compound dilutions. After stimulation with PDGF-BB ligand for 10 minutes, cells were washed with PBS and fixed in 3.7% formaldehyde in PBS for 10 minutes. This was followed by washing in PBS/0.2% Triton X-100 and permeabilizing in 100% MeOH for 10 minutes. Cells were incubated in blocking buffer for 1 hour. Antibodies to phosphorylated PDGFRβ and total ERK were added to the cells and incubated for 3 hours. After washing with PBS/0.2% Triton X-100, the cells were incubated with fluorescently-labeled secondary antibodies for an additional hour. Cells were then washed with PBS and analyzed for fluorescence at both wavelengths using the Odyssey Infrared Imaging System (LI-COR Biosciences). Phosphorylated PDGFR signal was normalized to total ERK signal. A standard 4-parameter logistic model was fit to the inhibitor dose response curves, with the IC50 being defined as the concentration of inhibitor giving 50 percent of control (POC).

Another assay deals with T2, cFMS (Homo sapiens, UniProt P07333).
T2 construct: THP-1 cells (human acute monocytic leukemia cell line) were serum-starved for 4 hours; endogenous in cells; host or cells: THP-1 cells (human acute monocytic leukemia cell line)
Nature of the assay: cFMS Cell-Based Assay (Example C). Particulars: averaged IC50; phospho-cFMS in THP-1 cells stimulated with 250 ng/mL recombinant human MCSF; read-out: cFMS Cell ELISA IC50. As for the experimental part:
The ability of compounds of Formula I to inhibit cFMS activation in cells was determined by the following assay. THP-1 cells (human acute monocytic leukemia cell line) were serum-starved for 4 hours prior to treatment with compounds of Formula I for 1 hour. The concentration of compounds of Formula I was varied over a 9-point, 3-fold dilution series with 5,000 nM typically being the highest dose. Cell culture and treatment were carried out in a humidified 37° C., 5% CO2 incubator. Treated cells were stimulated with 250 ng/mL recombinant human MCSF for 1 minute to induce activation of cFMS. Cells were lysed in a manner which preserves phosphoproteins, and the lysate was analyzed by ELISA (R&D Systems, Human Phospho-M-CSF R DuoSet IC DYC3268), in which total cFMS protein in the lysate is captured and phosphotyrosine residues of cFMS are detected. A standard curve, made using purified phospho-M-CSF R protein, was used to quantify phospho-c-FMS in compound-treated wells. A standard 4-parameter logistic model was fit to the inhibitor dose response curves, with the IC50 being defined as the concentration of inhibitor giving 50 percent of control (POC).

The next assay has as its target T3, c-KIT (Homo sapiens, UniProt P10721).
T3 construct: M-07e cells (human acute megakaryoblastic leukemia cell line) were serum-starved for 4 hours; endogenous in cells; host or cells: M-07e cells (human acute megakaryoblastic leukemia cell line)
The assay can be described thus: c-KIT Cell-Based Assay (Example D). To be noted: averaged IC50; phospho-c-KIT in M-07e cells stimulated with 150 ng/ml recombinant human SCF; read-out: cKIT Cell ELISA IC50. As to the method:
The ability of compounds of Formula I to inhibit c-KIT activation in cells was determined by the following assay. M-07e cells (human acute megakaryoblastic leukemia cell line) were serum-starved for 4 hours prior to treatment with compounds of Formula I for 1 hour. The concentration of compounds of Formula I was varied over a 9-point, 3-fold dilution series with 5,000 nM typically being the highest dose. Cell culture and treatment were carried out in a humidified 37° C., 5% CO2 incubator. Treated cells were stimulated with 150 ng/ml recombinant human SCF for 4 minutes to induce activation of c-KIT. Cells were lysed in a manner which preserves phosphoproteins, and the lysate was analyzed by ELISA (R&D Systems, Human Phospho-SCF R DuoSet IC DYC3527), in which total c-KIT protein in the lysate is captured and phosphotyrosine residues of c-Kit are detected. A standard curve, made using purified phospho-SCF R protein, was used to quantify phospho-c-KIT in compound-treated wells. A standard 4-parameter logistic model was fit to the inhibitor dose response curves, with the IC50 being defined as the concentration of inhibitor giving 50 percent of control (POC).

T1 sequence (P09619 33-1106): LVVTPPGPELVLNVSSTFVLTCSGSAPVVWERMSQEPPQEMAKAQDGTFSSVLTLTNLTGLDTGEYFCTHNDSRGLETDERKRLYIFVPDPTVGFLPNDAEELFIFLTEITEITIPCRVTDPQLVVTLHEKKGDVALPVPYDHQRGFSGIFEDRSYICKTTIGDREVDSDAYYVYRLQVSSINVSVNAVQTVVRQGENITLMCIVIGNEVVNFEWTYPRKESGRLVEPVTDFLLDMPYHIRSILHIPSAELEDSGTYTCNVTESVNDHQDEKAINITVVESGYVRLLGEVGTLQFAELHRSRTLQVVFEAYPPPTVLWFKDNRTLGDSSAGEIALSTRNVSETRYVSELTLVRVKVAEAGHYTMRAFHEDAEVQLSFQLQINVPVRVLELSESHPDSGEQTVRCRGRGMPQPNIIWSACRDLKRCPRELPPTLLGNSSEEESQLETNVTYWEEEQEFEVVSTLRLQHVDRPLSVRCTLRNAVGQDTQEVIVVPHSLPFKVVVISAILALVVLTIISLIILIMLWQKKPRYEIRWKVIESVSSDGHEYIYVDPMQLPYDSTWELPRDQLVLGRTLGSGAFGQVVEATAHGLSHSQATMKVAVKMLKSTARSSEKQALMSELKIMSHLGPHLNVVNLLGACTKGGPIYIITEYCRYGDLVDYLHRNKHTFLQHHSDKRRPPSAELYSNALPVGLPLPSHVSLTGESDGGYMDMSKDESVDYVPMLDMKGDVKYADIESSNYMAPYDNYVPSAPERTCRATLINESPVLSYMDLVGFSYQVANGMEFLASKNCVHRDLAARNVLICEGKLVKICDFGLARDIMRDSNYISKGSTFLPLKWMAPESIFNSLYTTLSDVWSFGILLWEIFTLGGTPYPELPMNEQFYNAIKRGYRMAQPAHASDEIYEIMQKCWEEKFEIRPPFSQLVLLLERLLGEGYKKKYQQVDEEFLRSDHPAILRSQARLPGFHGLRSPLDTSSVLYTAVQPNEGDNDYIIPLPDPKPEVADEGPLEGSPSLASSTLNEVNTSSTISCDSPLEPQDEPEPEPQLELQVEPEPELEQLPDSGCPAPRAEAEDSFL
T3 sequence (P10721 26-976): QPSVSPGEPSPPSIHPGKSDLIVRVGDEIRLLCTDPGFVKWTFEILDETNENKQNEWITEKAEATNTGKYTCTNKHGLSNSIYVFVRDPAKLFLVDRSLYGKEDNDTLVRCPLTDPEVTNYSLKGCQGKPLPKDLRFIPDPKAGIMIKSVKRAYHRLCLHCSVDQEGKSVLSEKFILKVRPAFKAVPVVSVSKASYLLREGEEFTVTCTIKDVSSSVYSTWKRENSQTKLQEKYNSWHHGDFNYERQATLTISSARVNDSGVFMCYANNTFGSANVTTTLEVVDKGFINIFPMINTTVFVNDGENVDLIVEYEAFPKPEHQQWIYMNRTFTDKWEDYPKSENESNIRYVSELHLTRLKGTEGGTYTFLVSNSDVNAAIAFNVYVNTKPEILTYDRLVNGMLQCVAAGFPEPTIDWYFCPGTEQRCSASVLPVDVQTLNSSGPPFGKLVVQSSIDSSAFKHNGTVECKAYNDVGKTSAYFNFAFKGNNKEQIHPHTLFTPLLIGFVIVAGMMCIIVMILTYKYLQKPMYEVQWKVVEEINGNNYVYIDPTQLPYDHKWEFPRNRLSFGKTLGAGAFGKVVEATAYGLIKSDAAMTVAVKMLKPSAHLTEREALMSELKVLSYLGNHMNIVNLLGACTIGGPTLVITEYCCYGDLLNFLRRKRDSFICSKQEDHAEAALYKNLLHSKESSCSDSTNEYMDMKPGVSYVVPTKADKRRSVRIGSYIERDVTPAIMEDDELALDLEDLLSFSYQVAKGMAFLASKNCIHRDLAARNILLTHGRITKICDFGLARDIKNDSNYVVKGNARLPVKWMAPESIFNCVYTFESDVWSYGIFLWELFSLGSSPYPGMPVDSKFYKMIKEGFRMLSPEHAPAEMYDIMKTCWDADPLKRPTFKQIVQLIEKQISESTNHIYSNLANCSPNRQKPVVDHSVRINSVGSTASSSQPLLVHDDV
T2 sequence (P07333 20-972): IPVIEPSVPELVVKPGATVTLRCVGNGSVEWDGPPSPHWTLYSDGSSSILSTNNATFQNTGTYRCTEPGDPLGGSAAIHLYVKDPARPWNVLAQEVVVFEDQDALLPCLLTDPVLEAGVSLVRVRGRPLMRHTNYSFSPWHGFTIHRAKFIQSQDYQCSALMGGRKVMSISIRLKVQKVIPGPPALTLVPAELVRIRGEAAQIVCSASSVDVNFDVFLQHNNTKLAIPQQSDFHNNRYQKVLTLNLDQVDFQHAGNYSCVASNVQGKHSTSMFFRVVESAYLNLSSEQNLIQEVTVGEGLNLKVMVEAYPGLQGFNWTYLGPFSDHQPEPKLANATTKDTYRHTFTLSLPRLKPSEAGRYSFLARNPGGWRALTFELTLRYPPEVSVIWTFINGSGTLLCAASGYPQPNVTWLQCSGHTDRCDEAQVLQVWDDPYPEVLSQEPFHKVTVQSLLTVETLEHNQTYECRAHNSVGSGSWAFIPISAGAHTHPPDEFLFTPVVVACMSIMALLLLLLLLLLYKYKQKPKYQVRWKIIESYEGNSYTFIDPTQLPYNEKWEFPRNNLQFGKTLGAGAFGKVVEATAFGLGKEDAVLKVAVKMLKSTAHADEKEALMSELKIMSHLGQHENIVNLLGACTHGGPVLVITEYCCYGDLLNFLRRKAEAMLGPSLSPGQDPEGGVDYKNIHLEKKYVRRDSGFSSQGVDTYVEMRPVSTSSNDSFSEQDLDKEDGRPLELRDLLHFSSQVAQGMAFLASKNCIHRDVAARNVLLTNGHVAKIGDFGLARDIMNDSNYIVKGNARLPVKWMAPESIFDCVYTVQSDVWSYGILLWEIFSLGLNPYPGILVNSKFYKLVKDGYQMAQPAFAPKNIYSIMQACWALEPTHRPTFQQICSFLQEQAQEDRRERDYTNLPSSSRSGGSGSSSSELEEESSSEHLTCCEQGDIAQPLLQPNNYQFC

Take `CN1CCN(CCOc2ccn3c(C(=O)Nc4c(Cl)ccc5c4cnn5Cc4cccc(C(F)(F)F)c4)cnc3c2)CC1` [Example 100, N-(5-chloro-1-(3-(trifluoromethyl)benzyl)-1H-indazol-4-yl)-7-(2-(4-methylpiperazin-1-yl)ethoxy)imidazo[1,2-a]pyridine-3-carboxamide]: the IC50 turned out to be 6 nM against PDGFR beta, 23.6 nM at cFMS and 3.3 nM at c-KIT.

For `CN1CCN(CCOc2ccn3c(C(=O)Nc4cccc5c4cnn5Cc4cccn(C)c4=O)cnc3c2)CC1` [Example 104, N-(1-((1-methyl-2-oxo-1,2-dihydropyridin-3-yl)methyl)-1H-indazol-4-yl)-7-(2-(4-methylpiperazin-1-yl)ethoxy)imidazo[1,2-a]pyridine-3-carboxamide dihydrochloride], the IC50 against PDGFR beta was 78.4 nM; on cFMS, 33.7 nM; at c-KIT, 398 nM.

Take `Cc1cccc(Cn2ncc3c(NC(=O)c4cnc5cc(OCCN6CCN(C)CC6)ccn45)ccc(Cl)c32)n1` [Example 101, N-(7-chloro-1-((6-methylpyridin-2-yl)methyl)-1H-indazol-4-yl)-7-(2-(4-methylpiperazin-1-yl)ethoxy)imidazo[1,2-a]pyridine-3-carboxamide trihydrochloride]: the IC50 against PDGFR beta came to 23.7 nM; on cFMS, 43.6 nM; on c-KIT, 30.5 nM.

In the case of `Cc1cccc(Cn2nc(C)c3c(NC(=O)c4cnc5cc(OCCN6CCCC6)ccn45)cccc32)n1` [Example 55, N-(3-methyl-1-((6-methylpyridin-2-yl)methyl)-1H-indazol-4-yl)-7-(2-(pyrrolidin-1-yl)ethoxy)imidazo[1,2-a]pyridine-3-carboxamide dihydrochloride], the IC50 was determined as 305 nM at PDGFR beta and 40.1 nM on cFMS.

Take `Cc1ccc(-c2ccn3c(C(=O)Nc4cccc5c4c(C)nn5Cc4cccc(C)n4)cnc3c2)cn1` [Example 50, N-(3-methyl-1-((6-methylpyridin-2-yl)methyl)-1H-indazol-4-yl)-7-(6-methylpyridin-3-yl)imidazo[1,2-a]pyridine-3-carboxamide di-hydrochloride]: at cFMS, the IC50 was 5.8 nM.

`O=C(Nc1cccc2c1cnn2CC1CCCCO1)c1cnc2ccccn12` (stereo not shown) [Example 128, N-(1-((tetrahydro-2H-pyran-2-yl)methyl)-1H-indazol-4-yl)imidazo[1,2-a]pyridine-3-carboxamide]: on cFMS, the IC50 is 131 nM.

For the compound `COCCOc1ccn2c(C(=O)Nc3cccc4c3cnn4Cc3cccc(O)c3)cnc2c1` [Example 130, N-(1-(3-hydroxybenzyl)-1H-indazol-4-yl)-7-(2-methoxyethoxy)imidazo[1,2-a]pyridine-3-carboxamide], the half-maximal inhibitory concentration (IC50) against PDGFR beta stood at 114 nM; on cFMS it was 442 nM.

Take `COCCOc1ccn2c(C(=O)Nc3cccc4c3cnn4-c3ccccc3)cnc2c1` [Example 133, 7-(2-Methoxyethoxy)-N-(1-phenyl-1H-indazol-4-yl)imidazo[1,2-a]pyridine-3-carboxamide]: the IC50 came out at 1000 nM against PDGFR beta and 99.1 nM on cFMS.

Regarding `Cc1cccc(Cn2nc(C)c3c(NC(=O)c4cnc5cc(-c6c(C)n[nH]c6C)ccn45)cccc32)n1` [Example 69, 7-(3,5-dimethyl-1H-pyrazol-4-yl)-N-(3-methyl-1-((6-methylpyridin-2-yl)methyl)-1H-indazol-4-yl)imidazo[1,2-a]pyridine-3-carboxamide], at cFMS, the IC50 came to 8.2 nM.

Regarding `COCCNCCc1ccn2c(C(=O)Nc3cccc4c3c(C)nn4Cc3cccc(C)n3)cnc2c1` [Example 74, 7-(2-(2-methoxyethylamino)ethyl)-N-(3-methyl-1-((6-methylpyridin-2-yl)methyl)-1H-indazol-4-yl)imidazo[1,2-a]pyridine-3-carboxamide], at cFMS, the IC50 came to 79.5 nM.
